Laboratory results as given in ChEMBL document CHEMBL2169878 (J Med Chem, 2012).
pIC50: −log10 of the molar value. Activity calls are given as the source filed them. The calls are words filed in the database; no cut-off is given here.

Legend:
Plasmodium falciparum [1] = experiment: Antiplasmodial activity against chloroquine-sensitive Plasmodium falciparum D10 infected in human RBC after 72 hrs by parasite lactate dehydrogenase assay; assay type: functional, organism-based; conditions: D10, 72 h
Salmonella typhimurium [2] = experiment: Mutagenicity against Salmonella typhimurium TA98 assessed as revertants at 15 uM incubated for 90 mins followed by drug washout measured after 2 days relative to positive control; assay type: toxicity, organism-based; conditions: salmonella enterica subsp. enterica serovar typhimurium
Plasmodium berghei [3] = experiment: Antimalarial activity against Plasmodium berghei ANKA expressing GFP infected in mouse assessed as reduction in parasitemia at 100 mg/kg, po administered 24 hrs post-infection measured 48 hrs post-dosing by flow cytometric analysis; assay type: functional; parameters: scale not given: the % may be the effect or the level left
Plasmodium berghei [4] = experiment: Antimalarial activity against Plasmodium berghei ANKA expressing GFP infected in mouse assessed as cure from infection at 100 mg/kg, po administered 24 hrs post-infection measured on day 30; assay type: functional, organism-based; parameters: dose 100 mg/kg
Salmonella typhimurium [5] = experiment: Mutagenicity against Salmonella typhimurium TA98 assessed as revertants at 7 uM incubated for 90 mins followed by drug washout measured after 2 days relative to positive control; assay type: toxicity, organism-based; conditions: salmonella enterica subsp. enterica serovar typhimurium
Plasmodium falciparum [6] = experiment: Antiplasmodial activity against chloroquine-sensitive Plasmodium falciparum NF54 infected in human erythrocytes assessed as inhibition of [3H]hypoxanthine incorporation incubated for 48 hrs prior to [3H]hypoxanthine addition measured after 48 hrs by liquid scintillation counting; assay type: functional, organism-based
Salmonella typhimurium [7] = experiment: Mutagenicity against Salmonella typhimurium TA98 assessed as revertants at 61 uM incubated for 90 mins followed by drug washout measured after 2 days relative to positive control; assay type: toxicity, organism-based; conditions: salmonella enterica subsp. enterica serovar typhimurium, 1.5 h
Salmonella typhimurium [8] = experiment: Mutagenicity against Salmonella typhimurium TA100 assessed as revertants at 7 uM incubated for 90 mins followed by drug washout measured after 2 days relative to positive control; assay type: toxicity, organism-based; conditions: salmonella enterica subsp. enterica serovar typhimurium, 1.5 h
Salmonella typhimurium [9] = experiment: Mutagenicity against Salmonella typhimurium TA98 assessed as revertants at 24 uM incubated for 90 mins followed by drug washout measured after 2 days relative to positive control; assay type: toxicity, organism-based; conditions: salmonella enterica subsp. enterica serovar typhimurium, 1.5 h
Salmonella typhimurium [10] = experiment: Mutagenicity against Salmonella typhimurium TA100 assessed as revertants at 61 uM incubated for 90 mins followed by drug washout measured after 2 days relative to positive control; assay type: toxicity, organism-based; conditions: salmonella enterica subsp. enterica serovar typhimurium
Salmonella typhimurium [11] = experiment: Mutagenicity against Salmonella typhimurium TA98 assessed as revertants at 80 uM incubated for 90 mins followed by drug washout measured after 2 days relative to positive control; assay type: toxicity, organism-based; conditions: salmonella enterica subsp. enterica serovar typhimurium, 1.5 h
[12] = Cytotoxicity against human HepG2 cells after 24 hrs by neutral red dye uptake assay; assay type: cell-based; conditions: read-out: TC50
[13] = Cytotoxicity against mouse NIH3T3 cells after 24 hrs by neutral red dye uptake assay; assay type: cell-based; conditions: read-out: TC50
Salmonella typhimurium [14] = experiment: Mutagenicity against Salmonella typhimurium TA100 assessed as revertants at 80 uM incubated for 90 mins followed by drug washout measured after 2 days relative to positive control; assay type: toxicity, organism-based; conditions: salmonella enterica subsp. enterica serovar typhimurium
Plasmodium falciparum [15] = experiment: Antiplasmodial activity against chloroquine-resistant Plasmodium falciparum K1 infected in human erythrocytes assessed as inhibition of [3H]hypoxanthine incorporation incubated for 48 hrs prior to [3H]hypoxanthine addition measured after 48 hrs by liquid scintillation counting; assay type: functional, organism-based
Plasmodium berghei [16] = experiment: Antimalarial activity against Plasmodium berghei ANKA expressing GFP infected in mouse assessed as mean survival days at 30 mg/kg, po administered 24 hrs post-infection (reference value: 6 to 7 days); assay type: functional
Plasmodium berghei [17] = experiment: Antimalarial activity against Plasmodium berghei ANKA expressing GFP infected in mouse assessed as reduction in parasitemia at 30 mg/kg, po administered 24 hrs post-infection measured 48 hrs post-dosing by flow cytometric analysis; assay type: functional; parameters: scale not given: the % may be the effect or the level left
Salmonella typhimurium [18] = experiment: Mutagenicity against Salmonella typhimurium TA100 assessed as revertants at 40 uM incubated for 90 mins followed by drug washout measured after 2 days relative to positive control; assay type: toxicity, organism-based; conditions: salmonella enterica subsp. enterica serovar typhimurium
Plasmodium berghei [19] = experiment: Antimalarial activity against Plasmodium berghei ANKA expressing GFP infected in mouse assessed as mean survival days at 100 mg/kg, po administered 24 hrs post-infection (reference value: 6 to 7 days); assay type: functional
Plasmodium berghei [20] = experiment: Antimalarial activity against Plasmodium berghei ANKA expressing GFP infected in mouse assessed as cure from infection at 30 mg/kg, po administered 24 hrs post-infection measured on day 30; assay type: functional, organism-based; parameters: dose 30 mg/kg
Salmonella typhimurium [21] = experiment: Mutagenicity against Salmonella typhimurium TA100 assessed as revertants at 24 uM incubated for 90 mins followed by drug washout measured after 2 days relative to positive control; assay type: toxicity, organism-based; conditions: salmonella enterica subsp. enterica serovar typhimurium
Salmonella typhimurium [22] = experiment: Mutagenicity against Salmonella typhimurium TA100 assessed as revertants at 15 uM incubated for 90 mins followed by drug washout measured after 2 days relative to positive control; assay type: toxicity, organism-based; conditions: salmonella enterica subsp. enterica serovar typhimurium
Salmonella typhimurium [23] = experiment: Mutagenicity against Salmonella typhimurium TA98 assessed as revertants at 40 uM incubated for 90 mins followed by drug washout measured after 2 days relative to positive control; assay type: toxicity, organism-based; conditions: salmonella enterica subsp. enterica serovar typhimurium
Plasmodium falciparum [24] = experiment: Antiplasmodial activity against chloroquine-resistant Plasmodium falciparum W2 infected in human RBC after 72 hrs by parasite lactate dehydrogenase assay; assay type: functional, organism-based; conditions: W2, 72 h
[25] = molecular target: T1, Chloroquine resistance transporter (Plasmodium falciparum) (UniProt Q9N623); experiment: Inhibition of chloroquine-resistant Plasmodium falciparum Dd2 CRT expressed in Xenopus laevis oocyte assessed as inhibition of [3H]chloroquine uptake at 100 uM measured from 1 to 2 hrs
T1 sequence (whole entry): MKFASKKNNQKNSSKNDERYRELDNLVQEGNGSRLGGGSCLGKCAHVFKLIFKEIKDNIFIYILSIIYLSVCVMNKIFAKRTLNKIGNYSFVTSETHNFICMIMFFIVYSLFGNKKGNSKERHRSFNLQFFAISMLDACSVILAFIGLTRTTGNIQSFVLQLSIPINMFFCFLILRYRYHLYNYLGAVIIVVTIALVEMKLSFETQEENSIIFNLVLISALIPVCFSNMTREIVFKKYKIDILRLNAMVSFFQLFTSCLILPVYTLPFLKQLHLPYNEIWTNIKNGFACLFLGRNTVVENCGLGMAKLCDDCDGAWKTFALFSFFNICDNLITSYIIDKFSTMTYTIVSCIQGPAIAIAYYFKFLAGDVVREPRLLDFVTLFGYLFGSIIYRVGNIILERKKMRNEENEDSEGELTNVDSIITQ

Salmonella typhimurium [26] = experiment: Mutagenicity against Salmonella typhimurium TA98 assessed as revertants at 6 uM incubated for 90 mins followed by drug washout measured after 2 days relative to positive control; assay type: toxicity, organism-based; conditions: salmonella enterica subsp. enterica serovar typhimurium, 1.5 h
Salmonella typhimurium [27] = experiment: Mutagenicity against Salmonella typhimurium TA100 assessed as revertants at 50 uM incubated for 90 mins followed by drug washout measured after 2 days relative to positive control; assay type: toxicity, organism-based; conditions: salmonella enterica subsp. enterica serovar typhimurium
Salmonella typhimurium [28] = experiment: Mutagenicity against Salmonella typhimurium TA100 assessed as revertants at 3 uM incubated for 90 mins followed by drug washout measured after 2 days relative to positive control; assay type: toxicity, organism-based; conditions: salmonella enterica subsp. enterica serovar typhimurium, 1.5 h
Salmonella typhimurium [29] = experiment: Mutagenicity against Salmonella typhimurium TA100 assessed as revertants at 13 uM incubated for 90 mins followed by drug washout measured after 2 days relative to positive control; assay type: toxicity, organism-based; conditions: salmonella enterica subsp. enterica serovar typhimurium
Salmonella typhimurium [30] = experiment: Mutagenicity against Salmonella typhimurium TA100 assessed as revertants at 6 uM incubated for 90 mins followed by drug washout measured after 2 days relative to positive control; assay type: toxicity, organism-based; conditions: salmonella enterica subsp. enterica serovar typhimurium, 1.5 h
Salmonella typhimurium [31] = experiment: Mutagenicity against Salmonella typhimurium TA100 assessed as revertants at 25 uM incubated for 90 mins followed by drug washout measured after 2 days relative to positive control; assay type: toxicity, organism-based; conditions: salmonella enterica subsp. enterica serovar typhimurium
Salmonella typhimurium [32] = experiment: Mutagenicity against Salmonella typhimurium TA98 assessed as revertants at 3 uM incubated for 90 mins followed by drug washout measured after 2 days relative to positive control; assay type: toxicity, organism-based; conditions: salmonella enterica subsp. enterica serovar typhimurium, 1.5 h
Salmonella typhimurium [33] = experiment: Mutagenicity against Salmonella typhimurium TA98 assessed as revertants at 1.5 uM incubated for 90 mins followed by drug washout measured after 2 days relative to positive control; assay type: toxicity, organism-based; conditions: salmonella enterica subsp. enterica serovar typhimurium, 1.5 h
Salmonella typhimurium [34] = experiment: Mutagenicity against Salmonella typhimurium TA98 assessed as revertants at 13 uM incubated for 90 mins followed by drug washout measured after 2 days relative to positive control; assay type: toxicity, organism-based; conditions: salmonella enterica subsp. enterica serovar typhimurium, 1.5 h
Salmonella typhimurium [35] = experiment: Mutagenicity against Salmonella typhimurium TA100 assessed as revertants at 1.5 uM incubated for 90 mins followed by drug washout measured after 2 days relative to positive control; assay type: toxicity, organism-based; conditions: salmonella enterica subsp. enterica serovar typhimurium, 1.5 h
Salmonella typhimurium [36] = experiment: Mutagenicity against Salmonella typhimurium TA98 assessed as revertants at 25 uM incubated for 90 mins followed by drug washout measured after 2 days relative to positive control; assay type: toxicity, organism-based; conditions: salmonella enterica subsp. enterica serovar typhimurium
Salmonella typhimurium [37] = experiment: Mutagenicity against Salmonella typhimurium TA98 assessed as revertants at 50 uM incubated for 90 mins followed by drug washout measured after 2 days relative to positive control; assay type: toxicity, organism-based; conditions: salmonella enterica subsp. enterica serovar typhimurium, 1.5 h

For Clc1ccc2c(NC(c3ccccc3)(c3ccc(CN4CCCC4)c(Cl)c3)c3ccc(CN4CCCC4)c(Cl)c3)ccnc2c1, the pIC50 (Plasmodium falciparum [1]) was 7.59, the Activity (Salmonella typhimurium [2]) was 1% and the Activity (Plasmodium berghei [3]) was 99.3%. For the same compound, the Activity (Plasmodium berghei [4]) was “inactive”, the Activity (Salmonella typhimurium [5]) was 1% and the pIC50 (Plasmodium falciparum [6]) was 8.02. For the same compound, the Activity (Salmonella typhimurium [7]) was 5%, the Activity (Salmonella typhimurium [8]) was 4% and the Activity (Salmonella typhimurium [9]) was 5%. The Activity (Salmonella typhimurium [10]) was 4%, the Activity (Salmonella typhimurium [11]) was 0% and the CC50 at 24 h [12] was 6.1 µM. It also gave a CC50 at 24 h [13] of 15 µM, an Activity (Salmonella typhimurium [14]) of 0% and a pIC50 (Plasmodium falciparum [15]) of 8.08. It also gave an MSD (Plasmodium berghei [16]) of 7 days, an Activity (Plasmodium berghei [17]) of 99.4% and an Activity (Salmonella typhimurium [18]) of 4%. For the same compound, the MSD (Plasmodium berghei [19]) was 21.3 days, the Activity (Plasmodium berghei [20]) was “inactive” and the Activity (Salmonella typhimurium [21]) was 6%. The Activity (Salmonella typhimurium [22]) was 5%, the Activity (Salmonella typhimurium [23]) was 3% and the pIC50 (Plasmodium falciparum [24]) was 7.28. The inhibition [25] was 72%.

Fc1cc(C(Nc2ccnc3cc(Cl)ccc23)c2ccc(Cl)cc2)ccc1CN1CCCC1 (racemic) showed an Activity (Salmonella typhimurium [26]) of 3%, a pIC50 (Plasmodium falciparum [1]) of 7.23 and an Activity (Salmonella typhimurium [27]) of 11%. For the same compound, the Activity (Salmonella typhimurium [28]) was 10%, the Activity (Salmonella typhimurium [29]) was 11% and the Activity (Salmonella typhimurium [30]) was 10%. For the same compound, the Activity (Salmonella typhimurium [31]) was 11%, the pIC50 (Plasmodium falciparum [6]) was 7.89 and the Activity (Salmonella typhimurium [32]) was 5%. For the same compound, the Activity (Salmonella typhimurium [33]) was 4%, the Activity (Salmonella typhimurium [34]) was 3% and the CC50 at 24 h [12] was 12 µM. The CC50 at 24 h [13] was 25 µM, the Activity (Salmonella typhimurium [35]) was 12% and the pIC50 (Plasmodium falciparum [15]) was 7.70. It also gave an Activity (Salmonella typhimurium [36]) of 11%, a pIC50 (Plasmodium falciparum [24]) of 7.35 and an Activity (Salmonella typhimurium [37]) of 8%. The inhibition [25] was 70%.
